Consider 13 compounds from patent US20150175599A1, “FAAH Inhibitors” (Ironwood Pharmaceuticals, Inc., priority 2010, published 2015).

The target of this experiment is T1, human FAAH-1 (Homo sapiens, UniProt O00519).
T1 sequence (O00519 1-579): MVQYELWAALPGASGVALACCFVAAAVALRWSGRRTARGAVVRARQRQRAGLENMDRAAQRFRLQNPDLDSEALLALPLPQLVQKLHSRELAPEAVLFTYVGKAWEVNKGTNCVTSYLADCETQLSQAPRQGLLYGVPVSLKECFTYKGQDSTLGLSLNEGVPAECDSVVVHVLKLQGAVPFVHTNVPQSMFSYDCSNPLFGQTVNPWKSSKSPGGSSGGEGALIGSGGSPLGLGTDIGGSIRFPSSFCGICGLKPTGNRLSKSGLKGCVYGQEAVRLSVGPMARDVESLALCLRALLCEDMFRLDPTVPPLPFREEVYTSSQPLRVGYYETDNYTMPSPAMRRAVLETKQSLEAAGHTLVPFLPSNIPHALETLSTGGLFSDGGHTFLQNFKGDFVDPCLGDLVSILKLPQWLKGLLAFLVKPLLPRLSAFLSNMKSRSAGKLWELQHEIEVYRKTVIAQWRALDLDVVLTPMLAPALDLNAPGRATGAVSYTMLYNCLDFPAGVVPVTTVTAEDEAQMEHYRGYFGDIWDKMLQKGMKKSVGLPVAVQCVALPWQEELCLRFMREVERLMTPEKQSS
Put plainly: Whole cell anandamide hydrolysis assay (HeLa clone 5c5 transfected with human FAAH-1). The settings on record: HeLa clone 5c5 expressing human FAAH-1; read-out: human FAAH whole cell IC50. The class given is cell-based. On the procedure: FAAH activity was assayed in whole cells using methods disclosed previously (Maccarone et al., 1998 J Biol. Chem. 273:32332 and Bisogno et al., 1997 J Biol. Chem. 272:3315). In addition to the cell lines described in Maccarone et al. and Bisogno et al., MCF7 (ATCC designation HTB-22) and T84 (ATCC designation CCL-248) cell lines were also used in these assays.
cDNA expression clone for human FAAH-1 (in pcDNA3 vector) (Genbank Accession U82535; obtained from Benjamin Cravatt, Scripps Research Institute, La Jolla, Calif.) was linearized by digestion with BglII (New England Biolabs) and transfected by calcium phosphate into human HeLa cells (ATCC catalog #CCL-2). […] Following transfection, a stable HeLa-derived clone, designated 5c5, was isolated by single colony purification and expanded and maintained in modified Eagles medium (MEM; VWR catalog #45000-300) containing 10% fetal bovine serum (FBS), 2 mM L-glutamine, and 0.5 mg/mL G-418 (Sigma catalog #G5013).
Clone 5c5 (50,000 cells in 150 μL) was seeded into 96-well plates and incubated overnight (5% CO2, 37° C.). Media was carefully replaced with 180 μL DMEM/F12 medium (VWR catalog #45000-350) containing 15 mM HEPES, pH 7.4 and 0.1% fatty acid free BSA (Sigma catalog #A0281). Then, 2 μL of 100× desired final concentrations of certain exemplary compounds described herein were made up in DMSO, added to wells containing cells, and plates were incubated at 37° C. for 10 min. Next, 20 μL of 5 μM anandamide (Cayman catalog #90050) spiked with 8 μCi of anandamide-(ethanolamine-1-[^3H]) (American Radiolabeled Chemicals, Inc., catalog #ART 626) was added to the cells and the plates were incubated for an additional 15 min at 37° C. The reactions were terminated by chilling the plates on ice and adding 20 μL of 0.5M of potassium phosphate buffer (adjusted to pH 2.1 with phosphoric acid).
The acidified reactions were transferred to 96-well filter plates (0.25 mL capacity/well, 1.2 micron glass fiber pre-filter packed above 0.65 micron pore-size PVDF membrane, Millipore catalog MSFCN6B50) containing 25 μL charcoal (neutral activated carbon, Fisher Scientific catalog C170-500) per well. Prior to the assay, charcoal was measured and loaded onto the plate using an aluminum 96-well column loading device (Millipore catalog MACL09625). The filter plate was assembled over an empty 96-well plate (Costar) using a centrifuge alignment frame (Millipore catalog MACF09604) to allow for collection of the filtrate in the receiver plate. The charcoal glass-fiber filter plates were pre-washed with methanol by centrifugation 650×g for 10 min). Next, 80 μL of water was added to the wells of the pre-washed 96 well charcoal filter plate. Then, 90 μL of the acidified reaction mixture was added to the water in the wells of the charcoal plate. The samples were centrifuged as above. The substrate remained bound to the charcoal, whereas the [^3H]-ethanolamine product formed flowed through and was transferred to the microplates containing scintillation cocktail and quantified in a micro-plate scintillation counter (Perkin-Elmer Microbeta). Control reactions with either no cells or cells treated with DMSO alone were performed in triplicate and used to define background (no cells) and 100% activity (DMSO alone).
Following subtraction of background radioactivity, data were expressed as percent inhibition relative to 100% activity and fit with a nonlinear regression curve using GraphPad Prism Software (GraphPad Software Inc). IC50 values were calculated from the resulting dose-response curves constrained at top and bottom to 100% and 0%, respectively.

As a reminder, the IC50 is the concentration at which inhibition is half-maximal. On to `COc1cc(NC(=O)C(=O)c2c(C)n(Cc3ccc(Cl)cc3)c3ccc(OC(F)(F)F)cc23)ccn1` [Compound 23, 2-(1-(4-chlorobenzyl)-2-methyl-5-(trifluoromethoxy)-1H-indol-3-yl)-N-(2-methoxypyridin-4-yl)-2-oxoacetamide], for which the IC50 is under 100 nM.
Under `COc1cc(NC(=O)C(=O)c2c(C)n(Cc3ccc(Cl)cn3)c3cc(C)c(OC)cc23)ccn1` [Compound 95, 2-(1-((5-chloropyridin-2-yl)methyl)-5-methoxy-2,6-dimethyl-1H-indol-3-yl)-N-(2-methoxypyridin-4-yl)-2-oxoacetamide] stands under 100 nM.
Under `COc1cc(NC(=O)C(=O)c2c(C)n(Cc3ccc(Cl)cc3)c3ccncc23)ccn1` [Compound 37, 2-(1-(4-chlorobenzyl)-2-methyl-1H-pyrrolo[3,2-c]pyridin-3-yl)-N-(2-methoxypyridin-4-yl)-2-oxoacetamide] stands under 100 nM; under `COc1ccc2c(c1)c(C(=O)C(=O)Nc1ccnc(OC)c1)c(C)n2Cc1ccncc1` [Compound 16, 2-(5-methoxy-2-methyl-1-(pyridin-4-ylmethyl)-1H-indol-3-yl)-N-(2-methoxypyridin-4-yl)-2-oxoacetamide], under 100 nM.
For `COc1cc(NC(=O)C(=O)c2c(C)n(Cc3ccc(Cl)cn3)c3ccc(Cl)cc23)ccn1` [Compound 63, 2-(5-chloro-1-((5-chloropyridin-2-yl)methyl)-2-methyl-1H-indol-3-yl)-N-(2-methoxypyridin-4-yl)-2-oxoacetamide], the IC50 is under 100 nM.
As for `COc1ccc2c(c1)c(C(=O)C(=O)Nc1ccnc(OC)c1F)c(C)n2Cc1ccc(Cl)cc1` [Compound 53, 2-(1-(4-chlorobenzyl)-5-methoxy-2-methyl-1H-indol-3-yl)-N-(3-fluoro-2-methoxypyridin-4-yl)-2-oxoacetamide], the IC50 was under 100 nM.
As for `COc1cnc2c(c1)c(C(=O)C(=O)Nc1ccnc(OC)c1)c(C)n2Cc1ccc(Cl)cc1Cl` [Compound 42, 2-(1-(2,4-dichlorobenzyl)-5-methoxy-2-methyl-1H-pyrrolo[2,3-b]pyridin-3-yl)-N-(2-methoxypyridin-4-yl)-2-oxoacetamide], the IC50 is under 100 nM.
Under `COc1ccc(Cn2c(C)c(C(=O)C(=O)Nc3ccnc(OC)c3)c3cc(C)ccc32)nc1` [Compound 69, 2-(1-((5-methoxypyridin-2-yl)methyl)-2,5-dimethyl-1H-indol-3-yl)-N-(2-methoxypyridin-4-yl)-2-oxoacetamide] stands under 100 nM; under `COc1cc(NC(=O)C(=O)c2c(C)n(Cc3ccc(Cl)cc3)c3cc(Cl)c(OC)cc23)ccn1` [Compound 55, 2-(6-chloro-1-(4-chlorobenzyl)-5-methoxy-2-methyl-1H-indol-3-yl)-N-(2-methoxypyridin-4-yl)-2-oxoacetamide], under 100 nM.
`COc1cc(NC(=O)C(=O)c2c(C)n(Cc3ncc(Cl)cc3Cl)c3ccccc23)ccn1` [Compound 31, 2-(1-((3,5-dichloropyridin-2-yl)methyl)-2-methyl-1H-indol-3-yl)-N-(2-methoxypyridin-4-yl)-2-oxoacetamide]: the IC50 is under 100 nM.
Under `COc1cc(NC(=O)C(=O)c2c(C)n(Cc3ccc(Cl)cc3)c3ncc(C)cc23)ccn1` [Compound 76, 2-(1-(4-chlorobenzyl)-2,5-dimethyl-1H-pyrrolo[2,3-b]pyridin-3-yl)-N-(2-methoxypyridin-4-yl)-2-oxoacetamide] stands under 100 nM; under `COc1cc(NC(=O)C(=O)c2c(C)n(Cc3ccc(Cl)cc3)c3ccc([N+](=O)[O-])cc23)ccn1` [Compound 19, 2-(1-(4-chlorobenzyl)-2-methyl-5-nitro-1H-indol-3-yl)-N-(2-methoxypyridin-4-yl)-2-oxoacetamide], under 100 nM; under `COCc1ccc2c(c1)c(C(=O)C(=O)Nc1ccnc(OC)c1)c(C)n2Cc1ccc(Cl)cc1` [Compound 11, 2-(1-(4-chlorobenzyl)-5-(methoxymethyl)-2-methyl-1H-indol-3-yl)-N-(2-methoxypyridin-4-yl)-2-oxoacetamide], under 100 nM.
